From US8716297B2, “Chemical entities to be used for Wee1 inhibition for the treatment of cancer” (AbbVie Inc., priority 2011, dated 2014)

Molecular target: T1, GST-tagged-Wee1 kinase (Homo sapiens, UniProt P30291)
T1 construct: purchased Carnabio 05-177
Assay: Wee1 time-resolved fluorescence equilibrium binding assay (displacement of Oregon Green-labeled ATP-competitive probe)
Details: TR-FRET probe displacement; 2 nM GST-Wee1, 300 nM probe, 1 hour incubation; read-out: Wee-1 binding (Ki nM)
Procedure: Wee1 kinase was assayed using a time-resolved fluorescence equilibrium binding assay monitoring displacement of a rapidly reversible Oregon Green-labeled ATP-competitive kinase probe (N-(2-(2-(2-(4-(4-(5-chloro-4-(2-(1-hydroxycyclobutyl)thiazol-5-yl)-1H-pyrrolo[2,3-b]pyridin-2-yl)phenyl)piperazin-1-yl)ethoxy)ethoxy)ethyl)-2′,7′-difluoro-3′,6′-dihydroxy-3-oxo-3H-spiro[isobenzofuran-1,9′-xanthene]-5-carboxamide) by competitive Wee1 inhibitors.

T1 sequence (P30291 whole entry): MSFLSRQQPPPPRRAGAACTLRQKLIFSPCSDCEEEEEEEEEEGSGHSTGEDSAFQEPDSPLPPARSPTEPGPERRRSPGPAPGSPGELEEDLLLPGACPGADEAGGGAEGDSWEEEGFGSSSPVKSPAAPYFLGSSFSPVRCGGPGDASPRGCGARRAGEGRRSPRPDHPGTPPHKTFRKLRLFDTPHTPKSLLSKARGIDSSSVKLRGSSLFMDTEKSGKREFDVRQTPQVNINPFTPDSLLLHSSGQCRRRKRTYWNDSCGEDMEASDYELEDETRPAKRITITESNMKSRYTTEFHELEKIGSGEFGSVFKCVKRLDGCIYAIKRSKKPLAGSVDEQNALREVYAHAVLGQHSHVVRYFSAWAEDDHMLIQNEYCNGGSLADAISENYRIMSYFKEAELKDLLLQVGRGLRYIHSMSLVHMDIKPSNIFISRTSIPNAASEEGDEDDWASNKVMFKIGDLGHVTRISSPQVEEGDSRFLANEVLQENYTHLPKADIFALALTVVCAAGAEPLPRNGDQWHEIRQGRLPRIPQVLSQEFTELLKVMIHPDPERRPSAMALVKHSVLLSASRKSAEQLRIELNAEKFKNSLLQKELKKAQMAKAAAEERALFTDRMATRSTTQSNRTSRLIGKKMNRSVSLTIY

COC(=O)c1ccc2c(c1)N(c1ccccc1)S(=O)(=O)c1cnc(Nc3ccc(N4CCN(C)CC4)cc3)nc1-2 [Example 88, methyl 2-{[4-(4-methylpiperazin-1-yl)phenyl]amino}-6-phenyl-6H-pyrimido[5,4-c][2,1]benzothiazine-8-carboxylate 5,5-dioxide]
Ki: 2 nM

CCCN1c2ccc(-c3ccccc3)cc2-c2nc(Nc3ccc(N4CCN(C)CC4)cc3)ncc2S1(=O)=O [Example 97, N-[4-(4-methylpiperazin-1-yl)phenyl]-9-phenyl-6-propyl-6H-pyrimido[5,4-c][2,1]benzothiazin-2-amine 5,5-dioxide]
Ki: 6 nM

C/C=C/N1c2ccccc2-c2nc(Nc3ccc(N4CCN(C)CC4)cc3)ncc2S1(=O)=O [Example 2, N-[4-(4-methylpiperazin-1-yl)phenyl]-6-[(1E)-prop-1-en-1-yl]-6H-pyrimido[5,4-c][2,1]benzothiazin-2-amine 5,5-dioxide]
Ki: 1.7 nM

CCCN1c2cc(Br)ccc2-c2nc(Nc3ccc(N4CCN(C)CC4)cc3)ncc2S1(=O)=O [Example 66, 8-bromo-N-[4-(4-methylpiperazin-1-yl)phenyl]-6-propyl-6H-pyrimido[5,4-c][2,1]benzothiazin-2-amine 5,5-dioxide]
Ki: 6 nM

C=CCN1c2ccccc2-c2nc(Nc3ccc(N4CCC(C)CC4)cc3)ncc2S1(=O)=O [Example 9, 6-allyl-N-[4-(4-methylpiperidin-1-yl)phenyl]-6H-pyrimido[5,4-c][2,1]benzothiazin-2-amine 5,5-dioxide]
Ki: 50 nM

CCCN1c2cc(C(C)(C)O)ccc2-c2nc(Nc3ccc(N4CCN(C)CC4)cc3)ncc2S1(=O)=O [Example 80, 2-(2-{[4-(4-methylpiperazin-1-yl)phenyl]amino}-5,5-dioxido-6-propyl-6H-pyrimido[5,4-c][2,1]benzothiazin-8-yl)propan-2-ol]
Ki: 14 nM

C=CCN1c2ccccc2-c2nc(Nc3ccc(C4CCN(C)CC4)cc3)ncc2S1(=O)=O [Example 19, 6-allyl-N-[4-(1-methylpiperidin-4-yl)phenyl]-6H-pyrimido[5,4-c][2,1]benzothiazin-2-amine 5,5-dioxide]
Ki: 1.2 nM

CCCN1c2ccc(-c3ccncc3)cc2-c2nc(Nc3ccc(N4CCN(C)CC4)cc3)ncc2S1(=O)=O [Example 99, N-[4-(4-methylpiperazin-1-yl)phenyl]-6-propyl-9-(pyridin-4-yl)-6H-pyrimido[5,4-c][2,1]benzothiazin-2-amine 5,5-dioxide]
Ki: 3 nM

CCCN1c2cc(-c3ccncc3)ccc2-c2nc(Nc3ccc(N4CCN(C)CC4)cc3)ncc2S1(=O)=O [Example 76, N-[4-(4-methylpiperazin-1-yl)phenyl]-6-propyl-8-(pyridin-4-yl)-6H-pyrimido[5,4-c][2,1]benzothiazin-2-amine 5,5-dioxide]
Ki: 5 nM

CCCN1c2cc(-c3ccc(O)cc3)ccc2-c2nc(Nc3ccc(N4CCN(C)CC4)cc3)ncc2S1(=O)=O [Example 75, 4-(2-{[4-(4-methylpiperazin-1-yl)phenyl]amino}-5,5-dioxido-6-propyl-6H-pyrimido[5,4-c][2,1]benzothiazin-8-yl)phenol]
Ki: 14 nM

C=CCN1c2ncccc2-c2nc(Nc3ccc(C(=O)N4CCN(C)CC4)cc3)ncc2S1(=O)=O [Example 43, {4-[(6-allyl-5,5-dioxido-6H-pyrido[2,3-c]pyrimido[4,5-e][1,2]thiazin-2-yl)amino]phenyl}(4-methylpiperazin-1-yl)methanone]
Ki: 56 nM

CCCN1c2cc(-c3ccsc3)ccc2-c2nc(Nc3ccc(N4CCN(C)CC4)cc3)ncc2S1(=O)=O [Example 74, N-[4-(4-methylpiperazin-1-yl)phenyl]-6-propyl-8-(3-thienyl)-6H-pyrimido[5,4-c][2,1]benzothiazin-2-amine 5,5-dioxide]
Ki: 20 nM

C=CCN1c2ncccc2-c2nc(Nc3ccc4c(c3)N(C(C)=O)CC4)ncc2S1(=O)=O [Example 35, 1-{6-[(6-allyl-5,5-dioxido-6H-pyrido[2,3-c]pyrimido[4,5-e][1,2]thiazin-2-yl)amino]-2,3-dihydro-1H-indol-1-yl}ethanone]
Ki: 48 nM

CCCN1c2cc(-c3cnc(N)nc3)ccc2-c2nc(Nc3ccc(N4CCN(C)CC4)cc3)ncc2S1(=O)=O [Example 73, 8-(2-aminopyrimidin-5-yl)-N-[4-(4-methylpiperazin-1-yl)phenyl]-6-propyl-6H-pyrimido[5,4-c][2,1]benzothiazin-2-amine 5,5-dioxide]
Ki: 3 nM

C=CCN1c2c(C(=O)NC)cccc2-c2nc(Nc3ccc(N4CCN(C)CC4)cc3)ncc2S1(=O)=O [Example 61, 6-allyl-N-methyl-2-{[4-(4-methylpiperazin-1-yl)phenyl]amino}-6H-pyrimido[5,4-c][2,1]benzothiazine-7-carboxamide 5,5-dioxide]
Ki: 11 nM

CCCN1c2cc(C(=O)NCCO)ccc2-c2nc(Nc3ccc(N4CCN(C)CC4)cc3)ncc2S1(=O)=O [Example 84, N-(2-hydroxyethyl)-2-{[4-(4-methylpiperazin-1-yl)phenyl]amino}-6-propyl-6H-pyrimido[5,4-c][2,1]benzothiazine-8-carboxamide 5,5-dioxide]
Ki: 8 nM

CCCN1c2cc(-n3ccnc3)ccc2-c2nc(Nc3ccc(N4CCN(C)CC4)cc3)ncc2S1(=O)=O [Example 92, 8-(1H-imidazol-1-yl)-N-[4-(4-methylpiperazin-1-yl)phenyl]-6-propyl-6H-pyrimido[5,4-c][2,1]benzothiazin-2-amine 5,5-dioxide]
Ki: 14 nM

C=CCN1c2c(C(=O)O)cccc2-c2nc(Nc3ccc(N4CCN(C)CC4)cc3)ncc2S1(=O)=O [Example 59, 6-allyl-2-{[4-(4-methylpiperazin-1-yl)phenyl]amino}-6H-pyrimido[5,4-c][2,1]benzothiazine-7-carboxylic acid 5,5-dioxide]
Ki: 141 nM

C=CCN1c2ccccc2-c2nc(Nc3ccc(N4CCNCC4)c(F)c3)ncc2S1(=O)=O [Example 31, 6-allyl-N-[3-fluoro-4-(piperazin-1-yl)phenyl]-6H-pyrimido[5,4-c][2,1]benzothiazin-2-amine 5,5-dioxide]
Ki: 1.7 nM

C=CCN1c2ccccc2-c2nc(Nc3ccc(N4CCN(C)CC4)cc3OC)ncc2S1(=O)=O [Example 15, 6-allyl-N-[2-methoxy-4-(4-methylpiperazin-1-yl)phenyl]-6H-pyrimido[5,4-c][2,1]benzothiazin-2-amine 5,5-dioxide]
Ki: 166 nM

C=CCN1c2ncccc2-c2nc(Nc3ccc4c(c3)N(C)CCC4)ncc2S1(=O)=O [Example 49, 6-allyl-N-(1-methyl-1,2,3,4-tetrahydroquinolin-7-yl)-6H-pyrido[2,3-c]pyrimido[4,5-e][1,2]thiazin-2-amine 5,5-dioxide]
Ki: 45 nM

C=CCN1c2ccccc2-c2nc(Nc3ccc(C4CCCCC4)cc3)ncc2S1(=O)=O [Example 13, 6-allyl-N-(4-cyclohexylphenyl)-6H-pyrimido[5,4-c][2,1]benzothiazin-2-amine 5,5-dioxide]
Ki: 2080 nM

C=CCN1c2ccccc2-c2nc(Nc3ccc4c(c3)NCCC4)ncc2S1(=O)=O [Example 30, 6-allyl-N-(1,2,3,4-tetrahydroquinolin-7-yl)-6H-pyrimido[5,4-c][2,1]benzothiazin-2-amine 5,5-dioxide]
Ki: 21 nM

C=CCN1c2ncccc2-c2nc(Nc3ccc(N4CCCN(C)CC4)c(C)c3)ncc2S1(=O)=O [Example 53, 6-allyl-N-[3-methyl-4-(4-methyl-1,4-diazepan-1-yl)phenyl]-6H-pyrido[2,3-c]pyrimido[4,5-e][1,2]thiazin-2-amine 5,5-dioxide]
Ki: 1.1 nM

C=CCN1c2ncccc2-c2nc(Nc3ccc4c(c3)NCCC4)ncc2S1(=O)=O [Example 38, 6-allyl-N-(1,2,3,4-tetrahydroquinolin-7-yl)-6H-pyrido[2,3-c]pyrimido[4,5-e][1,2]thiazin-2-amine 5,5-dioxide]
Ki: 51 nM

CCCN1c2cc(C(=O)N(C)C)ccc2-c2nc(Nc3ccc(N4CCN(C)CC4)cc3)ncc2S1(=O)=O [Example 83, N,N-dimethyl-2-{[4-(4-methylpiperazin-1-yl)phenyl]amino}-6-propyl-6H-pyrimido[5,4-c][2,1]benzothiazine-8-carboxamide 5,5-dioxide]
Ki: 23 nM

CCCN1c2ccc(Br)cc2-c2nc(Nc3ccc(N4CCN(C)CC4)cc3)ncc2S1(=O)=O [Example 96, 9-bromo-N-[4-(4-methylpiperazin-1-yl)phenyl]-6-propyl-6H-pyrimido[5,4-c][2,1]benzothiazin-2-amine 5,5-dioxide]
Ki: 2 nM

CCCN1c2cc(C(=O)N[C@H]3CC[C@H](N)CC3)ccc2-c2nc(Nc3ccc(N4CCN(C)CC4)cc3)ncc2S1(=O)=O [Example 86, N-(trans-4-aminocyclohexyl)-2-{[4-(4-methylpiperazin-1-yl)phenyl]amino}-6-propyl-6H-pyrimido[5,4-c][2,1]benzothiazine-8-carboxamide 5,5-dioxide]
Ki: 4 nM

CCCN1c2cc(-c3cn[nH]c3)ccc2-c2nc(Nc3ccc(N4CCN(C)CC4)cc3)ncc2S1(=O)=O [Example 70, N-[4-(4-methylpiperazin-1-yl)phenyl]-6-propyl-8-(1H-pyrazol-4-yl)-6H-pyrimido[5,4-c][2,1]benzothiazin-2-amine 5,5-dioxide]
Ki: 5 nM

CN1c2ccccc2-c2nc(Nc3ccc(CN4CCCC4)cc3)ncc2S1(=O)=O [Example 58, 6-methyl-N-[4-(pyrrolidin-1-ylmethyl)phenyl]-6H-pyrimido[5,4-c][2,1]benzothiazin-2-amine 5,5-dioxide]
Ki: 11 nM

C=CCN1c2c(C(=O)NCCO)cccc2-c2nc(Nc3ccc(N4CCN(C)CC4)cc3)ncc2S1(=O)=O [Example 62, 6-allyl-N-(2-hydroxyethyl)-2-{[4-(4-methylpiperazin-1-yl)phenyl]amino}-6H-pyrimido[5,4-c][2,1]benzothiazine-7-carboxamide 5,5-dioxide]
Ki: 37 nM
